Test results: patent publication US20260022352A1, “COMPOSITIONS AND METHODS FOR PURIFYING […]” (North Carolina State University, priority 2023, published 2026)
“And” between values parts separate entries of the source, which are not always exact repeats. Equal entries are not always repeated. Where no end group is shown, it is not given here.

Assays:
LVV particles [1] = system: LVV particles; design: species or system lentivirus
LVV particles [2] = system: LVV particles; design: species or system lentivirus; remark: listed apart in the source
LVV particles [3] = assay type: binding, lentivirus

Row | Substance | LVV adsorbed (binding capacity) across cycles (LVV particles [1]) | DBC10% (TU per mL of resin) (LVV particles [2]) | binding capacity (summary) (LVV particles [3]) | DBC10% (vg/mL), real time qPCR (LVV particles [3])
1 | GKEAAFAA | > 10^9 TU/mL | 5.3 · 10^9 TU per mL of resin and 3.9 · 10^9 TU per mL of resin and 4.4 · 10^9 TU per mL of resin and 3.7 · 10^9 TU per mL of resin |  | 
2 | SFVRIGLSD | ~10^9 TU/mL |  | ~6.24·10^9 TU per mL of resin | 
3 | SRAFVGDADRD | ~10^9 TU/mL |  | ~6.24·10^9 TU per mL of resin | 
4 | SRAFVGDADRD-Poros: peptide SRAFVGDADRD (SEQ ID NO: 4) conjugated on aminated Poros resin (also: conjugated to aminated Poros resin, site not given here) |  |  |  | 6.89·10^9 vg/mL
